Assay results from PubChem BioAssay (NCI).
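These data come from cells grown in 96-well plates and exposed to compound for 48 hours at five concentrations. TGI denotes the concentration required for complete inhibition of growth.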

Assays:
Test in all cases: DTP human tumour cell line panel, 48 h
K-562 leukemia = test system: K-562 leukemia
HCT-15 colon = test system: HCT-15 colon
CAKI-1 renal = test system: CAKI-1 renal
M14 melanoma = test system: M14 melanoma
SK-MEL-2 melanoma = test system: SK-MEL-2 melanoma
KM12 colon = test system: KM12 colon
SNB-78 CNS = test system: SNB-78 CNS
ACHN renal = test system: ACHN renal
SNB-75 CNS = test system: SNB-75 CNS
RXF 393 renal = test system: RXF 393 renal
DMS 114 small cell lung = test system: DMS 114 small cell lung
NCI-H226 lung = test system: NCI-H226 lung
IGROV1 ovarian = test system: IGROV1 ovarian
KM20L2 colon = test system: KM20L2 colon
HOP-62 NSCLC = test system: HOP-62 NSCLC
COLO 205 colon = test system: COLO 205 colon
HL-60(TB) leukemia = test system: HL-60(TB) leukemia
SK-MEL-5 melanoma = test system: SK-MEL-5 melanoma
LOX IMVI melanoma = test system: LOX IMVI melanoma
A549 NSCLC = test system: A549 NSCLC
HT29 colon = test system: HT29 colon
DLD-1 colon = test system: DLD-1 colon
NCI-H522 lung = test system: NCI-H522 lung
SF-539 CNS = test system: SF-539 CNS
HCC-2998 colon = test system: HCC-2998 colon
EKVX NSCLC = test system: EKVX NSCLC
SW-620 colon = test system: SW-620 colon
SF-295 CNS = test system: SF-295 CNS
A498 renal = test system: A498 renal
SK-MEL-28 melanoma = test system: SK-MEL-28 melanoma
U251 CNS = test system: U251 CNS
UACC-62 melanoma = test system: UACC-62 melanoma
UO-31 renal = test system: UO-31 renal
XF 498 CNS = test system: XF 498 CNS
OVCAR-3 ovarian = test system: OVCAR-3 ovarian
SN12C renal = test system: SN12C renal
HOP-92 NSCLC = test system: HOP-92 NSCLC
TK-10 renal = test system: TK-10 renal
NCI-H23 lung = test system: NCI-H23 lung
DMS 273 small cell lung = test system: DMS 273 small cell lung
MALME-3M melanoma = test system: MALME-3M melanoma
HCT-116 colon = test system: HCT-116 colon
RPMI-8226 leukemia = test system: RPMI-8226 leukemia
MOLT-4 leukemia = test system: MOLT-4 leukemia
NCI-H460 lung = test system: NCI-H460 lung
OVCAR-4 ovarian = test system: OVCAR-4 ovarian
SR leukemia = test system: SR leukemia
SNB-19 CNS = test system: SNB-19 CNS
OVCAR-8 ovarian = test system: OVCAR-8 ovarian
786-0 renal = test system: 786-0 renal
SF-268 CNS = test system: SF-268 CNS
M19-MEL melanoma = test system: M19-MEL melanoma
OVCAR-5 ovarian = test system: OVCAR-5 ovarian
LXFL 529 NSCLC = test system: LXFL 529 NSCLC
SK-OV-3 ovarian = test system: SK-OV-3 ovarian
CCRF-CEM leukemia = test system: CCRF-CEM leukemia
MCF7 breast = test system: MCF7 breast
DU-145 prostate = test system: DU-145 prostate
MDA-N = test system: MDA-N
BT-549 breast = test system: BT-549 breast
NCI/ADR-RES ovarian = test system: NCI/ADR-RES ovarian
UACC-257 melanoma = test system: UACC-257 melanoma
MDA-MB-231 breast = test system: MDA-MB-231 breast
T-47D breast = test system: T-47D breast
PC-3 prostate = test system: PC-3 prostate
HS 578T breast = test system: HS 578T breast
MDA-MB-435 = test system: MDA-MB-435

Compound: COc1cc(OC)cc(C(=O)Cc2c(C(=O)c3ccccc3)c3ccccc3n2C(=O)c2ccccc2)c1
- TGI (K-562 leukemia): > 100 µM
- TGI (HCT-15 colon): > 100 µM
- TGI (CAKI-1 renal): > 100 µM
- TGI (M14 melanoma): > 100 µM
- TGI (SK-MEL-2 melanoma): 65.9 µM
- TGI (KM12 colon): > 100 µM
- TGI (SNB-78 CNS): > 100 µM
- TGI (ACHN renal): > 100 µM
- TGI (SNB-75 CNS): > 100 µM
- TGI (RXF 393 renal): > 100 µM
- TGI (DMS 114 small cell lung): > 100 µM
- TGI (NCI-H226 lung): > 100 µM
- TGI (IGROV1 ovarian): > 100 µM
- TGI (KM20L2 colon): > 100 µM
- TGI (HOP-62 NSCLC): > 100 µM
- TGI (COLO 205 colon): 93.4 µM
- TGI (HL-60(TB) leukemia): > 100 µM
- TGI (SK-MEL-5 melanoma): 35.1 µM
- TGI (LOX IMVI melanoma): > 100 µM
- TGI (A549 NSCLC): > 100 µM
- TGI (HT29 colon): > 100 µM
- TGI (DLD-1 colon): > 100 µM
- TGI (NCI-H522 lung): 45 µM
- TGI (SF-539 CNS): > 100 µM
- TGI (HCC-2998 colon): > 100 µM
- TGI (EKVX NSCLC): > 100 µM
- TGI (SW-620 colon): > 100 µM
- TGI (SF-295 CNS): 94.9 µM
- TGI (A498 renal): 92.5 µM
- TGI (SK-MEL-28 melanoma): > 100 µM
- TGI (U251 CNS): > 100 µM
- TGI (UACC-62 melanoma): > 100 µM
- TGI (UO-31 renal): > 100 µM
- TGI (XF 498 CNS): 73.6 µM
- TGI (OVCAR-3 ovarian): > 100 µM
- TGI (SN12C renal): > 100 µM
- TGI (HOP-92 NSCLC): 31.3 µM
- TGI (TK-10 renal): 98.3 µM
- TGI (NCI-H23 lung): > 100 µM
- TGI (DMS 273 small cell lung): > 100 µM
- TGI (MALME-3M melanoma): > 100 µM
- TGI (HCT-116 colon): > 100 µM
- TGI (RPMI-8226 leukemia): > 100 µM
- TGI (MOLT-4 leukemia): > 100 µM
- TGI (NCI-H460 lung): > 100 µM
- TGI (OVCAR-4 ovarian): > 100 µM
- TGI (SR leukemia): > 100 µM
- TGI (SNB-19 CNS): 69 µM
- TGI (OVCAR-8 ovarian): > 100 µM
- TGI (786-0 renal): > 100 µM
- TGI (SF-268 CNS): > 100 µM
- TGI (M19-MEL melanoma): > 100 µM
- TGI (OVCAR-5 ovarian): > 100 µM
- TGI (LXFL 529 NSCLC): > 100 µM
- TGI (SK-OV-3 ovarian): 99.8 µM
- TGI (CCRF-CEM leukemia): > 100 µM

Compound: Clc1nc(-c2ccccc2)nc(Cl)c1Cl
- TGI (MCF7 breast): 24.5 µM
- TGI (K-562 leukemia): > 43.2 µM
- TGI (HCT-15 colon): 21.2 µM
- TGI (CAKI-1 renal): 8.62 µM
- TGI (DU-145 prostate): 29.9 µM
- TGI (M14 melanoma): 19.7 µM
- TGI (KM12 colon): 25.3 µM
- TGI (ACHN renal): 9.33 µM
- TGI (SNB-75 CNS): 29.1 µM
- TGI (MDA-N): 26.6 µM
- TGI (RXF 393 renal): 18.9 µM
- TGI (NCI-H226 lung): 28.1 µM
- TGI (IGROV1 ovarian): 21.6 µM
- TGI (HOP-62 NSCLC): 32.3 µM
- TGI (COLO 205 colon): 23 µM
- TGI (BT-549 breast): 35.6 µM
- TGI (NCI/ADR-RES ovarian): 61.3 µM
- TGI (HL-60(TB) leukemia): 33 µM
- TGI (SK-MEL-5 melanoma): 26.7 µM
- TGI (LOX IMVI melanoma): 5.6 µM
- TGI (A549 NSCLC): 33.1 µM
- TGI (UACC-257 melanoma): 28.2 µM
- TGI (HT29 colon): 27.6 µM
- TGI (MDA-MB-231 breast): 27.1 µM
- TGI (NCI-H522 lung): 9.95 µM
- TGI (SF-539 CNS): 33.9 µM
- TGI (HCC-2998 colon): 20.5 µM
- TGI (EKVX NSCLC): 31.5 µM
- TGI (SW-620 colon): 15.1 µM
- TGI (T-47D breast): 28.5 µM
- TGI (PC-3 prostate): 24.6 µM
- TGI (HS 578T breast): 47.3 µM
- TGI (SF-295 CNS): 31.5 µM
- TGI (A498 renal): 31.5 µM
- TGI (SK-MEL-28 melanoma): 31.6 µM
- TGI (U251 CNS): 21.5 µM
- TGI (UACC-62 melanoma): 27.8 µM
- TGI (UO-31 renal): > 57.5 µM
- TGI (OVCAR-3 ovarian): 21.7 µM
- TGI (SN12C renal): 31.4 µM
- TGI (HOP-92 NSCLC): 30.3 µM
- TGI (TK-10 renal): 42.6 µM
- TGI (NCI-H23 lung): 32.6 µM
- TGI (MALME-3M melanoma): 17.6 µM
- TGI (HCT-116 colon): 17 µM
- TGI (RPMI-8226 leukemia): 28.1 µM
- TGI (MOLT-4 leukemia): 15 µM
- TGI (NCI-H460 lung): 42.7 µM
- TGI (OVCAR-4 ovarian): 38.9 µM
- TGI (SR leukemia): 7.53 µM
- TGI (SNB-19 CNS): > 54.2 µM
- TGI (OVCAR-8 ovarian): 41.2 µM
- TGI (786-0 renal): 22.8 µM
- TGI (SF-268 CNS): 30.7 µM
- TGI (MDA-MB-435): 26.8 µM
- TGI (OVCAR-5 ovarian): 30.4 µM
- TGI (SK-OV-3 ovarian): 27 µM
- TGI (CCRF-CEM leukemia): 7.99 µM

Compound: COc1ccc(Br)c(C=Nc2cccc3cc(OC)c(OC)cc23)c1
- TGI (MCF7 breast): > 100 µM
- TGI (K-562 leukemia): > 39.6 µM
- TGI (HCT-15 colon): 16.4 µM
- TGI (CAKI-1 renal): > 100 µM
- TGI (DU-145 prostate): > 100 µM
- TGI (M14 melanoma): > 58.1 µM
- TGI (SK-MEL-2 melanoma): > 100 µM
- TGI (KM12 colon): > 95.7 µM
- TGI (ACHN renal): > 73.8 µM
- TGI (SNB-75 CNS): > 100 µM
- TGI (MDA-N): > 41.4 µM
- TGI (RXF 393 renal): > 100 µM
- TGI (NCI-H226 lung): > 100 µM
- TGI (IGROV1 ovarian): > 93.9 µM
- TGI (HOP-62 NSCLC): > 100 µM
- TGI (COLO 205 colon): > 100 µM
- TGI (BT-549 breast): > 46 µM
- TGI (NCI/ADR-RES ovarian): > 77.8 µM
- TGI (HL-60(TB) leukemia): 7.97 µM
- TGI (SK-MEL-5 melanoma): > 94.9 µM
- TGI (LOX IMVI melanoma): 19.2 µM
- TGI (A549 NSCLC): > 100 µM
- TGI (UACC-257 melanoma): > 100 µM
- TGI (HT29 colon): > 71.8 µM
- TGI (MDA-MB-231 breast): > 46.4 µM
- TGI (NCI-H522 lung): > 100 µM
- TGI (SF-539 CNS): 12.4 µM
- TGI (HCC-2998 colon): > 100 µM
- TGI (EKVX NSCLC): > 100 µM
- TGI (SW-620 colon): 51.1 µM
- TGI (T-47D breast): > 100 µM
- TGI (PC-3 prostate): > 100 µM
- TGI (HS 578T breast): 57.1 µM
- TGI (SF-295 CNS): > 100 µM
- TGI (A498 renal): > 100 µM
- TGI (SK-MEL-28 melanoma): > 100 µM
- TGI (U251 CNS): 12.1 µM
- TGI (UACC-62 melanoma): > 83 µM
- TGI (UO-31 renal): 97.5 µM
- TGI (OVCAR-3 ovarian): > 100 µM
- TGI (SN12C renal): > 46.4 µM
- TGI (HOP-92 NSCLC): 79.5 µM
- TGI (TK-10 renal): 71.6 µM
- TGI (NCI-H23 lung): > 100 µM
- TGI (MALME-3M melanoma): 99.6 µM
- TGI (HCT-116 colon): 34.2 µM
- TGI (RPMI-8226 leukemia): > 46.3 µM
- TGI (MOLT-4 leukemia): > 62.4 µM
- TGI (NCI-H460 lung): > 100 µM
- TGI (OVCAR-4 ovarian): > 100 µM
- TGI (SR leukemia): 11.6 µM
- TGI (SNB-19 CNS): > 100 µM
- TGI (OVCAR-8 ovarian): > 59.9 µM
- TGI (786-0 renal): > 100 µM
- TGI (SF-268 CNS): > 100 µM
- TGI (MDA-MB-435): 12.6 µM
- TGI (OVCAR-5 ovarian): > 100 µM
- TGI (SK-OV-3 ovarian): > 100 µM
- TGI (CCRF-CEM leukemia): > 40.5 µM
